Assay: xn = mol fraction of the nth substance listed
Conditions: 101 kPa, Liquid; for viscosity: Capillary tube (Ostwald / Ubbelohde) method; for mass density: Pycnometric method

CCCCOCCOCCO [3,6-dioxa-1-decanol] + NCCO
Conditions	mass density, 293.15 K [kg/m3]	mass density, 303.15 K [kg/m3]	mass density, 313.15 K [kg/m3]	mass density, 323.15 K [kg/m3]	mass density, 333.15 K [kg/m3]	viscosity, 293.15 K [mPa·s]	viscosity, 303.15 K [mPa·s]	viscosity, 313.15 K [mPa·s]	viscosity, 323.15 K [mPa·s]	viscosity, 333.15 K [mPa·s]
x1 = 0.04025	1010.3	1002.5	994.3	986.2	978.2	23.11	14.27	9.52	6.64	4.82
x1 = 0.08607	1004.5	996.6	988.5	980.4	972.5	21.86	13.61	9.1	6.37	4.65
x1 = 0.1392	998.5	990.5	982.5	974.3	966.4	20.39	12.86	8.62	6.07	4.43
x1 = 0.2008	992.5	984.2	976.4	968.1	960.1	18.81	11.99	8.08	5.73	4.19
x1 = 0.2732	986.4	977.9	970.1	961.7	953.7	17.01	11.01	7.47	5.33	3.91
x1 = 0.3602	980.2	971.5	963.7	955.1	947.1	15.02	9.83	6.76	4.88	3.61
x1 = 0.4111	976.9	968.2	960.4	951.8	943.7	13.86	9.16	6.37	4.63	3.45
x1 = 0.4671	973.8	964.9	957.2	948.4	940.4	12.72	8.51	5.97	4.37	3.28
x1 = 0.4977	972.1	963.3	955.5	946.7	938.7	12.16	8.17	5.77	4.23	3.19
x1 = 0.6007	967.1	958.1	950.3	941.5	933.5	10.46	7.18	5.12	3.79	2.91
x1 = 0.7204	962	952.9	945.2	936.3	928.3	8.65	6.21	4.42	3.34	2.59
x1 = 0.7699	960.2	951.1	943.3	934.4	926.4	8.02	5.82	4.17	3.17	2.48
x1 = 0.8163	958.5	949.3	941.6	932.7	924.7	7.42	5.47	3.96	3.02	2.37
x1 = 0.9331	954.8	945.5	937.7	928.7	920.7	6.34	4.62	3.48	2.69	2.11
x1 = 1	952.9	943.5	935.7	926.6	918.5	5.84	4.23	3.22	2.51	2

CCCCOCCOCCO [3,6-dioxa-1-decanol] + OCCNCCO
Conditions	mass density, 293.15 K [kg/m3]	mass density, 303.15 K [kg/m3]	mass density, 313.15 K [kg/m3]	mass density, 323.15 K [kg/m3]	mass density, 333.15 K [kg/m3]	viscosity, 293.15 K [mPa·s]	viscosity, 303.15 K [mPa·s]	viscosity, 313.15 K [mPa·s]	viscosity, 323.15 K [mPa·s]	viscosity, 333.15 K [mPa·s]
x1 = 0.03299	1088.3	1081.8	1075.8	1069.4	1062.8	681.3	290.7	156.2	80.04	46.73
x1 = 0.06718	1080.7	1074.2	1068	1061.5	1054.9	550.2	231.6	122.5	66.29	38.49
x1 = 0.1026	1073.2	1066.5	1060.3	1053.6	1046.9	425.1	189.9	98.2	53.87	31.99
x1 = 0.1394	1065.8	1058.9	1052.5	1045.7	1038.8	321.3	150.1	81.15	43.18	26.71
x1 = 0.2174	1050.9	1043.7	1037.1	1029.9	1022.8	191.6	96.21	53.26	30.37	19.13
x1 = 0.3018	1036.3	1028.7	1021.9	1014.5	1007.3	114.4	59.95	34.51	20.74	13.22
x1 = 0.3933	1021.9	1014	1007	999.2	991.8	65.16	37.05	22.29	14.26	9.429
x1 = 0.4929	1007.7	999.5	992.3	984.2	976.7	38.57	22.76	14.83	9.416	6.995
x1 = 0.6019	993.8	985.2	977.9	969.6	961.9	23.75	14.92	10.02	7.041	5.178
x1 = 0.7008	982.3	973.5	966.1	957.6	949.8	15.75	10.43	7.262	5.199	3.927
x1 = 0.7558	976.4	967.5	960	951.4	943.5	12.19	8.762	6.011	4.251	3.358
x1 = 0.8059	971.2	962.2	954.7	946	938.1	10.43	7.305	5.293	3.759	3.035
x1 = 0.8537	966.4	957.3	949.7	940.9	933	8.982	6.312	4.629	3.407	2.756
x1 = 0.9031	961.6	952.4	944.8	935.9	927.9	7.858	5.501	4.032	3.028	2.463
x1 = 1	952.9	943.5	935.7	926.6	918.5	5.84	4.23	3.22	2.51	2

OCCN(CCO)CCO [triethanolamine] + CCCCOCCOCCO
Conditions	mass density, 293.15 K [kg/m3]	mass density, 303.15 K [kg/m3]	mass density, 313.15 K [kg/m3]	mass density, 323.15 K [kg/m3]	mass density, 333.15 K [kg/m3]	viscosity, 293.15 K [mPa·s]	viscosity, 303.15 K [mPa·s]	viscosity, 313.15 K [mPa·s]	viscosity, 323.15 K [mPa·s]	viscosity, 333.15 K [mPa·s]
x2 = 0	1124.3	1118.5	1112.8	1107.1	1101.5	917.6	404.7	203.9	108.3	64.2
x2 = 0.09279	1105.1	1098.9	1093.1	1087.2	1081.4	491.9	228.3	112.58	69.65	43.5
x2 = 0.1871	1086.3	1079.9	1073.9	1067.5	1061.6	269.8	126.6	67.74	44.43	28.3
x2 = 0.2841	1067.9	1061	1054.8	1048.1	1041.8	153.2	69.69	40.77	28.48	18.4
x2 = 0.3804	1050.4	1043.1	1036.7	1029.5	1022.9	85.31	41.88	25.92	17.59	12.6
x2 = 0.4787	1033.3	1025.6	1018.9	1011.4	1004.5	50.08	26.39	16.38	–	8.97
x2 = 0.5789	1016.5	1008.5	1001.6	993.7	986.6	30.52	17.51	10.81	8.79	6.52
x2 = 0.6816	999.9	991.7	984.6	976.4	969	18.81	10.74	7.41	5.83	4.71
x2 = 0.7855	983.9	975.2	967.9	959.5	951.9	12.36	8.16	–	4.35	3.54
x2 = 0.8923	968.1	959.1	951.5	942.7	934.9	8.49	6.01	–	3.39	2.67

Source: the NIST ThermoML archive (doi:10.1021/je4000372)
